Reference: patent EP4813970A1, “L-SERINE HAVING REDUCED HEAVY METAL AMOUNT, PHARMACEUTICAL COMPOSITION THEREOF, PREPARATION METHOD THEREFOR, AND USE THEREOF” (priority 2023, dated 2025)
Read-outs that look alike come from different tables or passages of the source.

Assays:
[1] = test system: patients with amyotrophic lateral sclerosis (ALS); conditions: cited from earlier work
[2] = test system: fetuses with 3-PGDH deficiency; conditions: cited from earlier work
[3] = test system: patients with hereditary sensory and autonomic neuropathy type 1 (HSAN1); conditions: cited from earlier work
[4] = test system: patients with autism spectrum disorder; test: Phase 2 clinical trial of L-serine in children under 11 years of age; conditions: 400 mg/kg for 24 weeks
HT22 cells = test: Mitochondrial membrane potential by JC-1 staining after DMNQ damage; format: cell-based
Procedure: HT22 cells were cultured under 37°C and 5% CO2 conditions using DMEM medium containing 10% FBS, 100 unit/mL penicillin, and 100 µg/mL streptomycin. […] After checking the condition of the cells, 5 µM JC-1 was added to the medium and the cells were stained for 30 minutes under 37°C and 5% CO2 conditions, treated with 0.25% trypsin-EDTA and the cells were collected in an e-tube, washed twice with PBS, and analyzed with Attune NxT. The effect of L-serine, which contains class 1 heavy metals, on mitochondria, which affects both neurological diseases and metabolic diseases, was confirmed depending on the concentration of class 1 heavy metals. DMNQ causes oxidative stress and excessive production of ROS, which induces mitochondrial membrane potential depolarization, thereby resulting in mitochondrial dysfunction and apoptosis. In mitochondria, an electrochemical proton gradient is created through the mitochondrial membrane, which produces ATP, and when mitochondria are damaged and apoptosis occurs, mitochondrial permeability pores are opened and thus mitochondrial transmembrane potential decreases (membrane potential depolarization). Mitochondrial membrane potential difference, which is an indicator of apoptosis, was measured through JC-1 staining. JC-1 enters the mitochondria in normal cells due to changes in mitochondrial membrane potential and forms a multicomplex, thereby giving it a red color, whereas when apoptosis occurs due to depolarization of the mitochondrial membrane potential, JC-1 remains in the cytoplasm and gives it a green color. Four hours before DMNQ treatment, neurons were treated with unpurified L-serine, primary purified L-serine, and secondary purified L-serine, and then treating with DMNQ for 2 hours and 30 minutes, the degree of protection of neurons was measured by measuring the mitochondrial membrane potential difference through JC-1 staining.

[5] = test system: 5XFAD (Tg6799; five familial mutation); test: Survival on 9-month administration in an Alzheimer's disease animal model; format: in vivo, mice; conditions: 500 mg/kg orally 5 days a week for 9 months, 3 to 12 months of age
Procedure: In order to measure the extent to which the class 1 heavy metal content in L-serine affects neurons when taken over a long period of time, long-term administration of L-serine for 9 months from the early stage of the disease (3 months of age) to 12 months of age was conducted using 5XFAD (Tg6799; five familial mutation), which is an animal model of Alzheimer's disease, and the effect of the drug on animal viability was confirmed. Specifically, WT & 5XFAD mice (purchased from The Jackson Lab) administered with saline and WT & 5XFAD mice administered with L-serine were composed of 12 mice per group. Saline and 500 mg/kg of unpurified L-serine and secondary purified L-serine were orally administered 5 days a week for 9 months, and after administration, the survival rate (%) was measured through daily observation of mice and designated as survival rate.

primary neurons = test: Multi-electrode array (MEA) of neuronal electrical activity under DMNQ neurotoxicity; format: cell-based, mouse; conditions: FIG. 3
Procedure: After adding an equal volume of culture medium, cells were separated by a mechanical method using a pipet, and single cells were separated using a 40 µm cell strainer. After centrifugation at 2,000 rpm for 5 minutes, the supernatant was removed and resuspended in culture medium. […] A 50% PEI solution, which was prepared by mixing borate buffer and PEI in a 1:1 ratio, was diluted with a 0.1% PEI solution using borate buffer and then filtered using a 0.22 µm filter. […] Laminin stock stored at -20°C was thawed at 4°C and then diluted in serum-free medium (20 ng/mL). 40 µL of 0.1% PEI was added to each well of a 24-well MEA plate, and then the 24-well MEA plate was placed in a cell incubator at 37°C and 5% CO2 for 60 minutes. After washing the 24-well MEA plate three times with sterile DW, the laminin solution was added 50 µL per well and placed overnight in a cell incubator at 37°C and 5% CO2. After removing the laminin solution from the 24-well MEA plate, the prepared primary neurons were seeded at a concentration of 1.0 × 10^5 cells/well. […] Neuronal electrical activity was measured using the Maestro Edge system every 30 minutes for 15 minutes, and the same amount of secondary purified L-serine was pretreated for 4 hours based on 0.1 mM unpurified L-serine. After drug pretreatment for 4 hours, neuronal electrical activity was measured 4 times at 30 minute intervals during 2-hour treatment with 20 µM DMNQ, and the data was analyzed using a neural metric tool and an axis metric plotting tool. […] For the MEA, neurons were cultured on electrodes for several weeks to form a network and then the electrical signals, that is action potentials, generated from the neurons were measured. […] The primary neuronal culture was cultured in 24-well MEA plates for approximately 15 days, and when electrical signals were passed through sporadic bursts and activated into synchronous network bursts, test substances were treated at concentrations not affecting cell viability, and action potentials were measured and compared.

[6] = oral twice a day, maximum dose of 15 g/day for 6 months
[7] = 4 hours pretreatment (based on 0.1 mM unpurified L-serine), then 2-hour 20 µM DMNQ

N[C@@H](CO)C(=O)O [L-serine]
progression of the patients' disease [1, 6]: showed the effect of delaying the progression of the patients' disease
safety [1, 6]: safe
safety ([1]; phase 2 clinical trials, up to 15 g twice a day for 6 months): shown to be safe
brain growth in fetuses ([2]; maternal supply of L-serine during pregnancy): shown to improve brain growth
neurological symptoms ([2]; postnatal children (birth to 4 years old)): shown to prevent neurological symptoms
adverse reactions ([2]; pregnant women, fetuses, and newborns): no adverse reactions were observed
safety and Charcot-Marie-Tooth Neuropathy Score (CMTNS) ([3]; 400 mg/kg/day for up to 2 years): effects of improving safety and Charcot-Marie-Tooth Neuropathy Score (CMTNS) were confirmed
1-deoxySL (dSL) ([3]; oral, up to 400 mg/kg/day for 10 and 52 weeks): reduced
side effects [4]: without any unusual side effects
treatment efficiency [4]: about 40%
mitochondrial damage (green) (HT22 cells; 0.5 mM, pre-treated 4 hours, then 20 µM DMNQ): 32.1±1.52%
mitochondrial damage (green) (HT22 cells; 1 mM, pre-treated 4 hours, then 20 µM DMNQ): 18.7±11.1%
mitochondrial damage (green) (HT22 cells; 2.5 mM, pre-treated 4 hours, then 20 µM DMNQ): 1.5±0.23%

N[C@@H](CO)C(=O)O [unpurified L-serine, L-serine]
survival rate [5]: 58%
active electrodes (spikes and network bursts) (primary neurons; [7]): the effect was not distinct

N[C@@H](CO)C(=O)O [secondary purified L-serine, L-serine]
survival rate [5]: 80%
active electrodes (spikes and network bursts) (primary neurons; [7]): active electrodes in a state without DMNQ treatment were maintained

COC1=C(OC)C(=O)c2ccccc2C1=O [DMNQ]
active electrodes (spikes and network bursts) (primary neurons; 20 µM DMNQ alone, compared to the control group): significantly reduced
mitochondrial damage (green) (HT22 cells; 20 µM DMNQ alone): 81.4±4.2%
